{
  "source": "patent US5506204A",
  "about": "“Muramyl compounds for treatment of septic shock” (Peptech (UK) Limited, priority 1991, dated 1996)",
  "key": {"[1]": {"tested_on": "IL-1", "test": "Example 6: IL-1 production by peritoneal macrophages in response to LPS", "format": "in vivo, BALB/c mice", "conditions": "2 injections 12 hours apart; macrophages stimulated with LPS 25 μg/ml 24 hours; thymocyte co-stimulation bioassay; FIG. 4", "description": "Mice (BALB/c, female) 13-14 g, 5 animals in each group, received 2 injections of MDPs, 12 hours apart. The MDPs tested were MDP, muroctasin, MDP-Thr, MDP-OBu, GMDP-LL, GMDP-Lys(St) and GMDP-A. After the last injection, peritoneal cells were collected and the induction of IL-1 secretion by peritoneal macrophages was tested.\nMacrophages were collected from the peritoneal cavity of mice by lavage with Hank's balanced salt solution. After washing the cells, they were then placed in wells of flat-bottomed 96-well plates and incubated at 37° C. for 1 hour in RPMI containing 5% FCS. The plates were then washed with warm RPMI to remove non-adhering cells. LPS (25 μg/ml) was then added in fresh culture medium and the plates were further cultured for 24 hours.\nProduction of IL-1 by peritoneal macrophages was assayed by thymocyte co-stimulation bioassay. Thymocytes from (CBA*C57BL.6)F1 mice (106), PHA (1 μg.ml), and the tested supernatant (50 μl) were placed into the wells of flat-bottomed 96-well plates. Thymocyte proliferation rate was measured 72 hours later by the incorporation of 3H TdR (1 μCi.well) during 6 hours prior to culture termination."}, "[2]": {"tested_on": "TNFα", "test": "Example 8: TNF induction by muramyl peptides", "format": "in vivo, BALB/c mice", "conditions": "C. parvum-primed mice, 100 μg (equimolar) IP, LPS 25 μg 18 hours later; FIG. 6", "description": "Here, the muramyl peptides tested were prototype MDP, GMDP, GMDP-A, GMDP-OBu, GMDP-Lys(St), GMDPA-Lys(St), GMDP-Benz and Thr-MDP.\n(§1) BALB/mice (6 mice/groups) were injected intraperitoneally with 1.4 mg of dead C. parvum (0.2 ml of a 7 mg/ml suspension). Mice were subsequently (2 weeks later) treated with saline, MDP (100 μg) or analogue (100 μg) in 0.5 ml saline IP. The dose of each `MDP` was adjusted so that animals received equimolar amounts. LOS (25 μg) was injected 18 hours after the injection of MDP/analogue and the mice were subsequently sacrificed and bled out. TNF was determined by standard capture ELISA assay."}, "[3]": {"tested_on": "serum TNF", "test": "Example 7: LPS induction of serum TNF", "format": "in vivo, BALB/c mice", "conditions": "C. parvum-primed mice, 100 μg (equimolar) IP, LPS 25 μg 18 hours later; FIG. 5", "description": "as §1, with “In this experiment, 4 compounds were tested and these are: MDP, GMDP-A, GMDP-OBu and GMDP. Saline was administered to control mice. BALB/c mice” for “BALB/mice”, “mice/group)” for “mice/groups)”, “suspension.).” for “suspension).”, “LPS” for “LOS”, “and” for “and the”"}, "[4]": {"tested_on": "LPS-induced mortality in mice", "test": "Example 3: LPS-induced mortality in mice", "format": "in vivo, BALB/c mice", "conditions": "i.p. twice daily 100 μg or molar equivalent per mouse for 9 days before 300 μg LPS; mortality 2 days after LPS; FIG. 1", "description": "25 female BALB/c mice weighing 16-18 g each were divided into 5 groups, each group containing 5 animals. Each group of mice received twice-daily doses of saline, GMDP, GMDP-OBu, MDP or GMDP-A. The compounds were administered by intra-peritoneal injection in twice-daily doses of 100 μg or the molar equivalent per mouse during a 9-day period before the injection of 300 μg LPS per mouse. […] Thus GMDP and GMDP-A would be useful in the treatment and prevention of sepsis and septic shock, whereas MDP and GMDP-OBu would not."}, "[5]": {"test": "Pyrogenicity", "conditions": "in vivo", "description": "The expression \"non pyrogenic or of low pyrogenicity\" refers to a compound which induces an increase in temperature of an adult human of less than half a degree following the administration of 1 to 2 mg of the compound.\nFirst, muramyl peptide compounds useful in the invention may be non-pyrogenic. Pyrogenicity may be simply measured by methods well known in the art."}},
  "data": [
    {"compound": "CCCCOC(=O)[C@@H](CCC(N)=O)NC(=O)[C@H](C)NC(=O)[C@@H](C)O[C@H]1[C@H](O)[C@@H](CO)OC(O)[C@@H]1NC(C)=O", "note": "(stereo partly drawn) [MDP-OBu, N-acetylmuramyl-L-alanyl-D-glutamine-α-N-butyl ester, reference compound]", "values": [
      {"measurement": "suppression of IL-1 production", "setting": "[1]", "result": "suppress the IL-1 response to LPS"}
    ]},
    {"compound": "N*-[N-Acetyl-D-glucosaminyl-(β1-4)-N-acetyl-muramyl-L-alanyl-γ-D-glutamyl]-N*-stearoyl-L-lysine [GMDPA-Lys(St)]", "values": [
      {"measurement": "effect on LPS-induced TNFα production", "setting": "[2]", "result": "enhance LPS-induced TNF production"}
    ]},
    {"compound": "N*-[N-acetyl-D-glucosaminyl-(β1-4)-N-acetylmuramyl-L-alanyl-D-isoglutaminyl]-N*-stearoyl-L-lysine [GMDP-Lys(St)]", "values": [
      {"measurement": "effect on LPS-induced TNFα production", "setting": "[2]", "result": "enhance LPS-induced TNF production"},
      {"measurement": "suppression of IL-1 production", "setting": "[1]", "result": "suppress the IL-1 response to LPS"}
    ]},
    {"compound": "N-acetyl-D-glucosaminyl-(β1-4)-N acetylmuramyl-L-alanyl-D-glutamine n-butyl ester [GMDP-OBu]", "values": [
      {"measurement": "effect on LPS-induced TNFα production", "setting": "[2]", "result": "consistently failed to synergise with LPS"}
    ]},
    {"compound": "N-acetyl-D-glucosaminyl-(β1-4)-N-acetylmuramyl-L-alanyl-D-glutamicacid [GMDP-A]", "values": [
      {"measurement": "effect on LPS induction of serum TNF", "setting": "[3]", "result": "pro-inflammatory, causing an enhancement of the TNF levels induced by LPS"},
      {"measurement": "effect on LPS-induced mortality", "setting": "[4]", "result": "antagonise the effect of LPS"},
      {"measurement": "pyrogenicity", "setting": "[5]", "result": "even less pyrogenic analogue"},
      {"measurement": "suppression of IL-1 production", "setting": "[1]", "result": "suppress the IL-1 response to LPS"}
    ]}
  ]
}
